One block for each compound: values may come before it.
Assays:
Assay in all cases: radiometric filter-binding kinase assay
MKNK1 (human) = MKNK1 (human) (UniProt Q9BUB5)
JAK2 JH1 JH2 (human) = JAK2 JH1 JH2 (human) (UniProt O60674)
MAP2K1 (human) = MAP2K1 (human) (UniProt Q02750)
RIPK2 (human) = RIPK2 (human) (UniProt O43353)
PHKG1 (human) = PHKG1 (human) (UniProt Q16816)
PRKCZ (human) = PRKCZ (human) (UniProt Q05513)
NTRK1 (human) = NTRK1 (human) (UniProt P04629)
MAP3K9 (human) = MAP3K9 (human) (UniProt P80192)
EPHB3 (human) = EPHB3 (human) (UniProt P54753)
LCK (mouse) = conditions: accession and sequence are those of the human protein
INSR (human) = INSR (human) (UniProt P06213)
MAPK10 (human) = MAPK10 (human) (UniProt P53779)
SYK (human) = SYK (human) (UniProt P43405)
NUAK1 (human) = NUAK1 (human) (UniProt O60285)
[1] = system: AKT2 (human), P31751 [S474D]
MARK4 (human) = MARK4 (human) (UniProt Q96L34)
PAK4 (human) = PAK4 (human) (UniProt O96013)
CSNK2A1 (human) = CSNK2A1 (human) (UniProt P68400)
YES1 (human) = YES1 (human) (UniProt P07947)
MAPK13 (human) = MAPK13 (human) (UniProt O15264)
CaMK1 (human) = CaMK1 (human) (UniProt Q14012)
SRC (human) = SRC (human) (UniProt P12931)
IGF1R (human) = IGF1R (human) (UniProt P08069)
DYRK1A (human) = DYRK1A (human) (UniProt Q13627)
MAP3K11 (human) = MAP3K11 (human) (UniProt Q16584)
PRKAA1 or PRKAA2 (rat) = conditions: accession and sequence are those of the human protein
MARK3 (human) = MARK3 (human) (UniProt P27448)
CHEK1 (human) = CHEK1 (human) (UniProt O14757)
INSRR (human) = INSRR (human) (UniProt P14616)
MINK1 (human) = MINK1 (human) (UniProt Q8N4C8)
AURKB (human) = AURKB (human) (UniProt Q96GD4)
CAMKK2 (human) = CAMKK2 (human) (UniProt Q96RR4)
MST4 (human) = MST4 (human) (UniProt Q9P289)
PIM2 (human) = PIM2 (human) (UniProt Q9P1W9)
PRKACA (human) = PRKACA (human) (UniProt P17612)
CDK2 CCNA2 (human) = CDK2 CCNA2 (human) (UniProt P20248+P24941)

Sequence of SRC (human) (P12931 whole entry, looked up): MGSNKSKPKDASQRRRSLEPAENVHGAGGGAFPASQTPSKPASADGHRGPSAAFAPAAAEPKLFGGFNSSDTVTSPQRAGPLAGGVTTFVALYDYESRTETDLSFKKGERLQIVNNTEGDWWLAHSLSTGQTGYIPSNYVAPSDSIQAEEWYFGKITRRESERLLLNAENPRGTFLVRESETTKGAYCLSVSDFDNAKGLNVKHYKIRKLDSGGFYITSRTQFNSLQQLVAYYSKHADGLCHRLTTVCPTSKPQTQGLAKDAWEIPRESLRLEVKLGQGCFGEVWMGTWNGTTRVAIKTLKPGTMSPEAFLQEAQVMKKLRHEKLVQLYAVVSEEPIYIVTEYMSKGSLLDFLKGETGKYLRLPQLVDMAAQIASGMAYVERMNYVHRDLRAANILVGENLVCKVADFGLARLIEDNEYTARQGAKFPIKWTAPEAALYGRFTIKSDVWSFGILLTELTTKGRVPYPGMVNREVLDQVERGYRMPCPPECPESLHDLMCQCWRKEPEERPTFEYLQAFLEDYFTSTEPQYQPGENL
Sequence of MAP2K1 (human) (Q02750 whole entry, looked up): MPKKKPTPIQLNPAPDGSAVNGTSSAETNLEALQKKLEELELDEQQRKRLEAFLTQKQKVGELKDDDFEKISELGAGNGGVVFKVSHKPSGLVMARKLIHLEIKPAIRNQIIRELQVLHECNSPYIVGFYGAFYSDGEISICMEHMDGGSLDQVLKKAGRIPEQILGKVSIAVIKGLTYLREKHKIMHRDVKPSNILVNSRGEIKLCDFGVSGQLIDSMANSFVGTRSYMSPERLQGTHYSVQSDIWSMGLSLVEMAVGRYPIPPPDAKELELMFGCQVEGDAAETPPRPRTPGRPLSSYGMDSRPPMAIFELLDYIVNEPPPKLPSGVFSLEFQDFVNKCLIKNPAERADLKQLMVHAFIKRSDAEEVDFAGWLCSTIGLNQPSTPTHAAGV
Sequence of EPHB3 (human) (P54753 whole entry, looked up): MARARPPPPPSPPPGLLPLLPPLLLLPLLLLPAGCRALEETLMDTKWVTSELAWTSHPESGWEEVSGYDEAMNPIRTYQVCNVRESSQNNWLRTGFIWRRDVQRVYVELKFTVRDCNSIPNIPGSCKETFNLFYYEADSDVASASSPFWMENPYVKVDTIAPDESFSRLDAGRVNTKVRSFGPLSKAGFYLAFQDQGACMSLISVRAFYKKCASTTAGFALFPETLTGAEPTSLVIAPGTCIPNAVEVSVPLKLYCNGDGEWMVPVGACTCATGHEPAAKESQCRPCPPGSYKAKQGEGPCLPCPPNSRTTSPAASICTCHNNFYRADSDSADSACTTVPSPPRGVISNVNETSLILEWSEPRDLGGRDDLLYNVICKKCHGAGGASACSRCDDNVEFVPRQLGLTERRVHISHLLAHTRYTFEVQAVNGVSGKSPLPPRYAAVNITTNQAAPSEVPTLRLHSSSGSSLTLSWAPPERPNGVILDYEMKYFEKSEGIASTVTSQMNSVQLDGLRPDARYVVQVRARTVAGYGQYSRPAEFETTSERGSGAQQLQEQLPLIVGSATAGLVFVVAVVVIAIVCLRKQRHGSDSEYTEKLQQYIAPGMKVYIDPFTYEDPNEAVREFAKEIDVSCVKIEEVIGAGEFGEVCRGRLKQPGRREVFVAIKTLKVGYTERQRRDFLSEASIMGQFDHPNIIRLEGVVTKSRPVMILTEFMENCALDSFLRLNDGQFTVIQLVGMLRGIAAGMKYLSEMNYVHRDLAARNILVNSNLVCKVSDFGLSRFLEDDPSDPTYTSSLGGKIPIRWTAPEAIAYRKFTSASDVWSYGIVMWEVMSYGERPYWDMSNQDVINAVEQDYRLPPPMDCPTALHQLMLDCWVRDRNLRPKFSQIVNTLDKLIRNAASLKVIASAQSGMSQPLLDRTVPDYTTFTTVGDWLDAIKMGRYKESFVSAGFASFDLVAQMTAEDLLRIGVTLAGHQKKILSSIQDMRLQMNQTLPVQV
Sequence of MINK1 (human) (Q8N4C8 whole entry, looked up): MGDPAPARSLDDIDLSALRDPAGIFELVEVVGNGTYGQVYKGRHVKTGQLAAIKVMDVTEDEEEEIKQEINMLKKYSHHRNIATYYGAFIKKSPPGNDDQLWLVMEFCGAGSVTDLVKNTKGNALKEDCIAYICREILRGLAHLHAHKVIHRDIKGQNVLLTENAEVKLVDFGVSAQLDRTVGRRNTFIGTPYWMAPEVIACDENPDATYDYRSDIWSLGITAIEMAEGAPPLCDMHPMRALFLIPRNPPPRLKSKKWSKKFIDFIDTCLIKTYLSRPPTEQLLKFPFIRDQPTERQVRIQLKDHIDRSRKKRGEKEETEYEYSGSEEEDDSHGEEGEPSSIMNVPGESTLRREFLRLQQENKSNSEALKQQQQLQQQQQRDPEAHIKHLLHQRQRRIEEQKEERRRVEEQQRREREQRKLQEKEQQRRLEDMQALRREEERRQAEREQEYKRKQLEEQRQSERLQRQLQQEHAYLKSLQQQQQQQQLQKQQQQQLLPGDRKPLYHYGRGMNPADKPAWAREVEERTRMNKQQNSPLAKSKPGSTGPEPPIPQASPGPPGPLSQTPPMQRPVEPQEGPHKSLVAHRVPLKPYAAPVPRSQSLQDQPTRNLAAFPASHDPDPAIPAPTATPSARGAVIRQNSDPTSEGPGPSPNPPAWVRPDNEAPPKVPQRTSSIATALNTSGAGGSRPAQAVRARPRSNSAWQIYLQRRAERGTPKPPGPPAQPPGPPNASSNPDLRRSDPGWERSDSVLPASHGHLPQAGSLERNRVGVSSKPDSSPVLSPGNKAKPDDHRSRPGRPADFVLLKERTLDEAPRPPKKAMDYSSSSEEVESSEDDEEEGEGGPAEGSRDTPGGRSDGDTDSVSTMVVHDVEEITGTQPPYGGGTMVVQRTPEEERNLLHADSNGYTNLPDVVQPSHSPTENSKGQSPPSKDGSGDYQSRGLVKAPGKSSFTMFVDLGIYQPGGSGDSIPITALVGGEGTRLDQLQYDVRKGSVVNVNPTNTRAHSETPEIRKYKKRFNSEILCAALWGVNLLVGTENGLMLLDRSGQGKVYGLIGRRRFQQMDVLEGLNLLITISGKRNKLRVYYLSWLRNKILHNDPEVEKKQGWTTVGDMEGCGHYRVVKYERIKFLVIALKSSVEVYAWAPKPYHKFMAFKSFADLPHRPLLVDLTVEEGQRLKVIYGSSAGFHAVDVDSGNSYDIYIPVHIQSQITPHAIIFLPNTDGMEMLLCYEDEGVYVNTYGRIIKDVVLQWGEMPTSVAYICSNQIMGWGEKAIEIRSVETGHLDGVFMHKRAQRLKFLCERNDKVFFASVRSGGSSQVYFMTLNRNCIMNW
Sequence of MAPK13 (human) (O15264 whole entry, looked up): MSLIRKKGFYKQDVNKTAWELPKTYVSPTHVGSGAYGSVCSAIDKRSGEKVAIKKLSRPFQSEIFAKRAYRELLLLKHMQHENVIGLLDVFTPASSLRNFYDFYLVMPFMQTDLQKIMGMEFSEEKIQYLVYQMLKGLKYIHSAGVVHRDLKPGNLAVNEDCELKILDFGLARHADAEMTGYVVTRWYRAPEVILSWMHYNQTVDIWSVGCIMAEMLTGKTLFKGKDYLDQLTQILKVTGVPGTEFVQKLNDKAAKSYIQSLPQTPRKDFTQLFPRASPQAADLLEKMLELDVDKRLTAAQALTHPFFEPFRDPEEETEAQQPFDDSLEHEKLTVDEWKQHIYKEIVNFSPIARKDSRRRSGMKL
Sequence of CHEK1 (human) (O14757 whole entry, looked up): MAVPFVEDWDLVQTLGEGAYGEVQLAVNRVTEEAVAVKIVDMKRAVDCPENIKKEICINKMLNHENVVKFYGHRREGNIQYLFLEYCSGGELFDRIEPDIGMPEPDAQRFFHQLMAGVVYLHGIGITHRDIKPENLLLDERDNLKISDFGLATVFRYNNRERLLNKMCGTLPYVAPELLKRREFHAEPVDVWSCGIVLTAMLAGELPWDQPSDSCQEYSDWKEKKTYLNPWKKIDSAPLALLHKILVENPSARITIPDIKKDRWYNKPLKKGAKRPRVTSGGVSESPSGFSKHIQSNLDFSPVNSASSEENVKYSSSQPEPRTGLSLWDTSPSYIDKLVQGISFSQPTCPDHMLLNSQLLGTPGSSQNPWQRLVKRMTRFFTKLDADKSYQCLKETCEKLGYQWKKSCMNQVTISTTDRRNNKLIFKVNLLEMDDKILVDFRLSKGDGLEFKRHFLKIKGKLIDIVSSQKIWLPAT
Sequence of NTRK1 (human) (P04629 whole entry, looked up): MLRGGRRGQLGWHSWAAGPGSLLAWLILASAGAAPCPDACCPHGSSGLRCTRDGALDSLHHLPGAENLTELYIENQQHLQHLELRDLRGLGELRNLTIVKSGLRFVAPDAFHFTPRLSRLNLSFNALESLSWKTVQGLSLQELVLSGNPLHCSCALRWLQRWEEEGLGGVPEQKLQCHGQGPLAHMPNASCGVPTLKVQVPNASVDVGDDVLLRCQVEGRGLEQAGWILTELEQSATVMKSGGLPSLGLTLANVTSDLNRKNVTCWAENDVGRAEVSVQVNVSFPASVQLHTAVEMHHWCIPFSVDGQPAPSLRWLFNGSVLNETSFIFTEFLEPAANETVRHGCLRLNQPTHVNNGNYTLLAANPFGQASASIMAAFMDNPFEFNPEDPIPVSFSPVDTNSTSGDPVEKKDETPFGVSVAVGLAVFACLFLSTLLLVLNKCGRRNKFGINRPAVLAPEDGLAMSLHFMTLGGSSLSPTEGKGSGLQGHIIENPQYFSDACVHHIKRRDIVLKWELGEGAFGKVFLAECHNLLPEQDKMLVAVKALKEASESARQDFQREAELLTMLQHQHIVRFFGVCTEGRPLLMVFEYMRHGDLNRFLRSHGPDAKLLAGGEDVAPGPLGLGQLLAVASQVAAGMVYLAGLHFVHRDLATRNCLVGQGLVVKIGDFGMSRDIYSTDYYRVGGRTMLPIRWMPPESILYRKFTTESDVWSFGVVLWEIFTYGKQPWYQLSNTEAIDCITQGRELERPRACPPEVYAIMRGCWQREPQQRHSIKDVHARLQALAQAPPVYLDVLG

- residual activity (MKNK1 (human); compound 1.0 µM): 101%
- residual activity (MKNK1 (human); compound 10.0 µM): 90%
- residual activity (JAK2 JH1 JH2 (human); compound 1.0 µM): 27%
- residual activity (JAK2 JH1 JH2 (human); compound 10.0 µM): 4%
- residual activity (MAP2K1 (human); compound 1.0 µM): 117%
- residual activity (MAP2K1 (human); compound 10.0 µM): 51%
- residual activity (RIPK2 (human); compound 1.0 µM): 80%
- residual activity (RIPK2 (human); compound 10.0 µM): 57%
- residual activity (PHKG1 (human); compound 1.0 µM): 77%
- residual activity (PHKG1 (human); compound 10.0 µM): 59%
- residual activity (PRKCZ (human); compound 1.0 µM): 88%
- residual activity (PRKCZ (human); compound 10.0 µM): 76%
- residual activity (NTRK1 (human); compound 1.0 µM): 68%
- residual activity (NTRK1 (human); compound 10.0 µM): 20%
- residual activity (MAP3K9 (human); compound 1.0 µM): 73%
- residual activity (MAP3K9 (human); compound 10.0 µM): 66%
- residual activity (EPHB3 (human); compound 1.0 µM): 94%
- residual activity (EPHB3 (human); compound 10.0 µM): 74%
- residual activity (LCK (mouse); compound 1.0 µM): 82%
- residual activity (LCK (mouse); compound 10.0 µM): 33%
- residual activity (INSR (human); compound 1.0 µM): 51%
- residual activity (INSR (human); compound 10.0 µM): 33%
- residual activity (MAPK10 (human); compound 1.0 µM): 73%
- residual activity (MAPK10 (human); compound 10.0 µM): 68%
- residual activity (SYK (human); compound 1.0 µM): 88%
- residual activity (SYK (human); compound 10.0 µM): 81%
- residual activity (NUAK1 (human); compound 1.0 µM): 53%
- residual activity (NUAK1 (human); compound 10.0 µM): 24%
- residual activity ([1]; compound 1.0 µM): 85%
- residual activity ([1]; compound 10.0 µM): 62%
- residual activity (MARK4 (human); compound 1.0 µM): 115%
- residual activity (MARK4 (human); compound 10.0 µM): 102%
- residual activity (PAK4 (human); compound 1.0 µM): 112%
- residual activity (PAK4 (human); compound 10.0 µM): 69%
- residual activity (CSNK2A1 (human); compound 1.0 µM): 91%
- residual activity (CSNK2A1 (human); compound 10.0 µM): 93%
- residual activity (YES1 (human); compound 1.0 µM): 79%
- residual activity (YES1 (human); compound 10.0 µM): 38%
- residual activity (MAPK13 (human); compound 1.0 µM): 85%
- residual activity (MAPK13 (human); compound 10.0 µM): 68%
- residual activity (CaMK1 (human); compound 1.0 µM): 85%
- residual activity (CaMK1 (human); compound 10.0 µM): 27%
- residual activity (SRC (human); compound 1.0 µM): 89%
- residual activity (SRC (human); compound 10.0 µM): 68%
- residual activity (IGF1R (human); compound 1.0 µM): 86%
- residual activity (IGF1R (human); compound 10.0 µM): 35%
- residual activity (DYRK1A (human); compound 1.0 µM): 99%
- residual activity (DYRK1A (human); compound 10.0 µM): 80%
- residual activity (MAP3K11 (human); compound 1.0 µM): 87%
- residual activity (MAP3K11 (human); compound 10.0 µM): 44%
- residual activity (PRKAA1 or PRKAA2 (rat); compound 1.0 µM): 85%
- residual activity (PRKAA1 or PRKAA2 (rat); compound 10.0 µM): 50%
- residual activity (MARK3 (human); compound 1.0 µM): 118%
- residual activity (MARK3 (human); compound 10.0 µM): 82%
- residual activity (CHEK1 (human); compound 1.0 µM): 95%
- residual activity (CHEK1 (human); compound 10.0 µM): 92%
- residual activity (INSRR (human); compound 1.0 µM): 117%
- residual activity (INSRR (human); compound 10.0 µM): 61%
- residual activity (MINK1 (human); compound 1.0 µM): 66%
- residual activity (MINK1 (human); compound 10.0 µM): 52%
- residual activity (AURKB (human); compound 1.0 µM): 67%
- residual activity (AURKB (human); compound 10.0 µM): 42%
- residual activity (CAMKK2 (human); compound 1.0 µM): 106%
- residual activity (CAMKK2 (human); compound 10.0 µM): 57%
- residual activity (MST4 (human); compound 1.0 µM): 113%
- residual activity (MST4 (human); compound 10.0 µM): 102%
- residual activity (PIM2 (human); compound 1.0 µM): 34%
- residual activity (PIM2 (human); compound 10.0 µM): 12%
- residual activity (PRKACA (human); compound 1.0 µM): 83%
- residual activity (PRKACA (human); compound 10.0 µM): 95%
- residual activity (CDK2 CCNA2 (human); compound 1.0 µM): 32%
- residual activity (CDK2 CCNA2 (human); compound 10.0 µM): 6%
Structure (SMILES): N#Cc1c(C2CCNCC2)cc(-c2c(O)cccc2OCC2CC2)nc1N

- residual activity (MKNK1 (human); compound 1.0 µM): 97%
- residual activity (MKNK1 (human); compound 10.0 µM): 77%
- residual activity (JAK2 JH1 JH2 (human); compound 1.0 µM): 104%
- residual activity (JAK2 JH1 JH2 (human); compound 10.0 µM): 60%
- residual activity (MAP2K1 (human); compound 1.0 µM): 92%
- residual activity (MAP2K1 (human); compound 10.0 µM): 88%
- residual activity (RIPK2 (human); compound 1.0 µM): 86%
- residual activity (RIPK2 (human); compound 10.0 µM): 36%
- residual activity (PHKG1 (human); compound 1.0 µM): 108%
- residual activity (PHKG1 (human); compound 10.0 µM): 62%
- residual activity (PRKCZ (human); compound 1.0 µM): 104%
- residual activity (PRKCZ (human); compound 10.0 µM): 104%
- residual activity (NTRK1 (human); compound 1.0 µM): 90%
- residual activity (NTRK1 (human); compound 10.0 µM): 30%
- residual activity (MAP3K9 (human); compound 1.0 µM): 72%
- residual activity (MAP3K9 (human); compound 10.0 µM): 32%
- residual activity (EPHB3 (human); compound 1.0 µM): 115%
- residual activity (EPHB3 (human); compound 10.0 µM): 109%
- residual activity (LCK (mouse); compound 1.0 µM): 98%
- residual activity (LCK (mouse); compound 10.0 µM): 77%
- residual activity (INSR (human); compound 1.0 µM): 101%
- residual activity (INSR (human); compound 10.0 µM): 97%
- residual activity (MAPK10 (human); compound 1.0 µM): 94%
- residual activity (MAPK10 (human); compound 10.0 µM): 84%
- residual activity (SYK (human); compound 1.0 µM): 102%
- residual activity (SYK (human); compound 10.0 µM): 106%
- residual activity (NUAK1 (human); compound 1.0 µM): 75%
- residual activity (NUAK1 (human); compound 10.0 µM): 30%
- residual activity ([1]; compound 1.0 µM): 100%
- residual activity ([1]; compound 10.0 µM): 96%
- residual activity (MARK4 (human); compound 1.0 µM): 105%
- residual activity (MARK4 (human); compound 10.0 µM): 69%
- residual activity (PAK4 (human); compound 1.0 µM): 93%
- residual activity (PAK4 (human); compound 10.0 µM): 46%
- residual activity (CSNK2A1 (human); compound 10.0 µM): 106%
- residual activity (YES1 (human); compound 1.0 µM): 92%
- residual activity (YES1 (human); compound 10.0 µM): 79%
- residual activity (MAPK13 (human); compound 1.0 µM): 116%
- residual activity (MAPK13 (human); compound 10.0 µM): 97%
- residual activity (CaMK1 (human); compound 1.0 µM): 98%
- residual activity (CaMK1 (human); compound 10.0 µM): 70%
- residual activity (SRC (human); compound 1.0 µM): 102%
- residual activity (SRC (human); compound 10.0 µM): 87%
- residual activity (IGF1R (human); compound 1.0 µM): 86%
- residual activity (IGF1R (human); compound 10.0 µM): 79%
- residual activity (DYRK1A (human); compound 1.0 µM): 85%
- residual activity (DYRK1A (human); compound 10.0 µM): 48%
- residual activity (MAP3K11 (human); compound 1.0 µM): 89%
- residual activity (MAP3K11 (human); compound 10.0 µM): 37%
- residual activity (PRKAA1 or PRKAA2 (rat); compound 1.0 µM): 103%
- residual activity (PRKAA1 or PRKAA2 (rat); compound 10.0 µM): 86%
- residual activity (MARK3 (human); compound 1.0 µM): 90%
- residual activity (MARK3 (human); compound 10.0 µM): 69%
- residual activity (CHEK1 (human); compound 1.0 µM): 95%
- residual activity (CHEK1 (human); compound 10.0 µM): 84%
- residual activity (INSRR (human); compound 1.0 µM): 97%
- residual activity (INSRR (human); compound 10.0 µM): 52%
- residual activity (MINK1 (human); compound 1.0 µM): 80%
- residual activity (MINK1 (human); compound 10.0 µM): 37%
- residual activity (AURKB (human); compound 1.0 µM): 79%
- residual activity (AURKB (human); compound 10.0 µM): 62%
- residual activity (CAMKK2 (human); compound 1.0 µM): 106%
- residual activity (CAMKK2 (human); compound 10.0 µM): 48%
- residual activity (MST4 (human); compound 1.0 µM): 100%
- residual activity (MST4 (human); compound 10.0 µM): 57%
- residual activity (PIM2 (human); compound 1.0 µM): 98%
- residual activity (PIM2 (human); compound 10.0 µM): 92%
- residual activity (PRKACA (human); compound 1.0 µM): 100%
- residual activity (PRKACA (human); compound 10.0 µM): 102%
- residual activity (CDK2 CCNA2 (human); compound 1.0 µM): 89%
- residual activity (CDK2 CCNA2 (human); compound 10.0 µM): 48%
Structure (SMILES): NC(=O)c1c(NC(=O)C2CC2)sc2c1CCCC2
